These results are taken from a melting point compilation (Tetko et al.; mined from patent text by program, amines drawn as free bases though some values may be those of a salt).

Broadly, the melting point is the temperature, or range, at which the solid turns liquid.

Structures are written as SMILES. A value given as a limit tells only on which side of the number the result lay.

In turn, `CC1(C)CC(=O)Nc2ccc(-c3cc(F)cc(C#N)c3)cc21` came in with a melting point of 249 to 250 °C.

For the compound `C=CCCCCCCCCC(=O)N[C@H]1CCCNC(=O)C1`, the melting point lay within 83 to 84 °C.

`CC(N)=CC(=O)c1cccnc1` gave a melting point of 82 °C.

On to `CCCCCCCCCC(=O)c1ccc(O)c(C(=O)Nc2ccc([N+](=O)[O-])cc2)c1`, for which the melting point was 142 to 143 °C.

On to `Cc1ncc(CO)c(NCc2ccc(-c3ccccc3-c3nnnn3C(c3ccccc3)(c3ccccc3)c3ccccc3)cc2)n1`, for which the melting point was 112 to 114 °C.

In turn, `CC1CCCC(C(=O)c2[nH]c3cc(Cl)ccc3c2N)C1` (stereo not given) returned a melting point of 140 to 142 °C.

`Cc1c(C(=O)Nc2ccc(N3CCN(CCO)CC3)c(C#N)c2)cnn1-c1ccc(F)c(F)c1` gave a melting point of 164 to 165 °C.

Compound `Cc1cn(C)c(C(=O)NS(=O)(=O)c2ccccc2Cl)n1` displayed a melting point of 230 to 231 °C.

Consider `COc1ccc(Br)c(Sc2nc3c(N)nccc3n2CCCNC(C)C)c1`, for which the melting point lay within 125 to 129 °C.

Take `CNc1c(C)c(C)c(OC(C)=O)c(C)c1N`: the melting point was 113 to 116 °C.

As to `CC1(C)Cc2sc3c(c2C1)CCC3=O`, the melting point lay in the range of 60 to 62 °C.

Compound `CC(C)c1cccc(C(C)C)c1NC(=O)CN1CN(c2ccccc2)C2(CCCCC2)C1` showed a melting point of 151 to 153 °C.

With `CC(=O)OCN=C(O)c1cc(C(O)=NCOC(C)=O)c(C(=O)O)cc1C(=O)O`, the melting point is 237 to 238 °C.

`Oc1ccc2nc(-c3ccc(O)c(Cl)c3)oc2c1`: the melting point was in the range of 254 to 256 °C.

Compound `COc1cc2c(cc1OC)[C@@H]1CCCC[C@@H]1N=C2c1ccc(NC(C)=O)cc1` (racemic) displayed a melting point of 218 °C.

The compound `CC(=O)c1ccc(OCCOc2ccc3ccccc3c2)cc1Cl` yielded a melting point of 119 to 120 °C.

As for `CSc1ncc(C(=N)NO)cc1Cl`, the melting point fell in the range of 139 to 143 °C.

Compound `NCCC(O)C(C(=O)O)N1CCC1=O` (stereo not given) displayed a melting point of 152 to 154 °C.

Take `CC(C)(C)NC(=O)NC1=CC(=O)CCC1`: the melting point fell in the range of 223 to 225 °C.

Consider `c1ccc(COc2ccc(Nc3ccn(-c4ccccc4)n3)cc2)cc1`, for which the melting point lay in the range of 145 to 146 °C.

With `Cn1c2ccc(F)cc2c(=O)n2nc(C(=O)O)cc12`, the melting point turned out to be 295 °C.

`CC(C)c1noc(-c2c(Cl)ccc(C(=O)c3cnn(C)c3O)c2Cl)n1` came in with a melting point of 138 to 144 °C.

`O=C(Nc1nnco1)C1c2ccccc2Oc2ccccc21`: the melting point lay within 239 to 240 °C.

Compound `CN(C)Cc1sc(C(c2ccc(Cl)cc2)c2c(Cl)cc(-n3ncc(=O)[nH]c3=O)cc2Cl)nc1-c1ccccc1F` (stereo not given) displayed a melting point of 250 °C.

Compound `Cn1c(-c2ccncc2)n[nH]c1=O` gave a melting point of 249 to 251 °C.

Compound `N=C(N)Nc1nc(-c2ccccc2[N+](=O)[O-])cs1` registered a melting point of 176 to 178 °C.

As for `CCCc1nc(C)c2nnc3ccc(F)cc3n12`, the melting point was in the range of 124 to 126 °C.

For `CN1Cc2c(C#Cc3ccccc3)ncn2-c2cccc(Cl)c2C1=O`, the melting point was in the range of 205 to 206 °C.

Take `O=C1C(=O)c2ccccc2C2=C1SCC1(CCN(CC(O)COc3ccccc3)CC1)O2` (stereo not given): the melting point is 174 to 176 °C.

`N#Cc1ccc2c(c1)Sc1ccccc1CC2=O` came in with a melting point of 166 to 170 °C.

`COc1cc(Nc2nccc(-c3ccc4ccccc4c3)n2)cc(OC)c1OC` showed a melting point of 156 °C.

`COCOc1ccc(OC)c(F)c1C(=O)c1ccc(C(=O)N[C@@H]2CCCN(C(=O)OC(C)(C)C)C[C@H]2NC(=O)c2ccncc2)cc1` yielded a melting point of 106 °C.

`ON=Cc1ccc2c(c1)ncn2-c1cccc(CNCc2ccc(F)c(F)c2)c1` showed a melting point of 165 to 167 °C.

Compound `CC(C)C[C@H](NC(=O)[C@H](Cc1c[nH]c2ccccc12)NC(=O)OC(C)(C)C)C(=O)CCl` registered a melting point of 140 to 141 °C.

On to `COc1ccc(C(c2ccc(F)cc2)C(c2ccc(OC)cc2)C(F)(F)F)cc1` (stereo not given), for which the melting point fell in the range of 132 to 135 °C.

Regarding `S=C(NN=Cc1cccc(-c2ccc(Cl)cc2Cl)n1)NN1CCCC1`, the melting point is 155 to 156 °C.

Consider `Cc1nc(-c2ccc(F)cc2)n(-c2ccc(S(N)(=O)=O)cn2)n1`, for which the melting point was 221 to 222 °C.

In turn, `O=C(NCc1ccc(F)c(F)c1)c1cc(-n2cnn(Cc3ccc(F)cc3)c2=O)n[nH]1` registered a melting point of 208 to 209 °C.

As for `Cc1cc(C2=NOC(c3cc(Cl)cc(Cl)c3)(C(F)(F)F)C2)ccc1C(=O)Cl` (stereo not given), the melting point is 140 to 143 °C.

Compound `COc1ccccc1Cc1ccc(=O)[nH]n1` gave a melting point of 142 to 143 °C.

On to `COc1ccc(C(=O)Nc2cccc(C(=O)O)c2)c2cc(C(=O)c3ccccc3)oc12`, for which the melting point is 262 to 263 °C.

Regarding `COC(=O)c1cncc(OC2SCC(O)C(O)C2O)c1` (stereo not given), the melting point was found to be 137 °C.

On to `COc1ccc(C=CC(=O)c2c(OC)cc(OC)cc2OC(=O)c2cccnc2)cc1`, for which the melting point was in the range of 55 to 60 °C.

The compound `COc1cc2cc[nH]c2cc1OCCCN1CCC(c2noc3cc(F)ccc23)CC1` gave a melting point of 156 to 158 °C.

`O=C1OC(=O)c2cc(N=C=S)ccc21` returned a melting point of 106 to 108 °C.

Take `O=C1CC(=O)CC(c2ccc(Cl)cc2Cl)C1`: the melting point was 192 to 196 °C.

Regarding `COc1ccc([C@@H]2Sc3cc(Cc4ccc(F)cc4)ccc3NC(=O)[C@@H]2O)cc1`, the melting point is 216 to 218 °C.

Consider `COC(=O)COc1ccc2c(c1)sc1cc3ccccc3c(-c3ccc(O)cc3)c12`, for which the melting point is 229 to 231 °C.

As for `NC(=O)c1[nH]c2ccccc2c1-c1ccc(NS(=O)(=O)c2cccc(Cl)c2Cl)cc1`, the melting point is more than 260 °C.

`N=C(N=C1NC(=O)C(=O)N1c1ccc(Cl)c(Cl)c1)Nc1ccc(Cl)c(Cl)c1` returned a melting point of 220 °C.

`CNC(=O)Nc1cc(-c2c(-c3ccc(F)c(C)c3)nc3cccnn23)ccn1` yielded a melting point of 225 to 227 °C.

As to `CC(ON1C(C)(C)CC(O)CC1(C)C)C(=O)NCCCN(C)C` (stereo not given), the melting point fell in the range of 85 to 88 °C.

Consider `CCCc1nc(I)c(C=O)[nH]1`, for which the melting point fell in the range of 141 to 142 °C.

In the case of `CC(C)(C)c1cccc(S(=O)(=O)n2c(C(C)(O)c3ccc(C(=O)O)s3)cc3cc(C(F)(F)F)ccc32)c1` (stereo not given), the melting point was determined as 80 °C.

As for `COc1ccc(C2(C#N)CCC(=C3SCCCS3)CC2)cc1OC1CCCC1` (stereo not given), the melting point was in the range of 115 to 116 °C.

Compound `COc1cc(Oc2cccc(C(F)(F)F)c2)nc(C(=S)Nc2ccccc2)c1` came in with a melting point of 126 to 128 °C.

Regarding `CC[C@H](C)[C@H](OCc1ccccc1)[C@H]1[C@H]([N+](=O)[O-])[C@H](C2CCCCC2)N[C@@H]1C(=O)O`, the melting point was 194 to 196 °C.

Take `Cc1c(CO)oc2ccc([N+](=O)[O-])cc12`: the melting point was in the range of 149 to 150 °C.

`CC(=O)N1CCc2ccccc2C1Cc1ccccc1N` (stereo not given) registered a melting point of 142 to 148 °C.

Compound `Cc1ccc(S(=O)(=O)NC(=O)C2C(=O)CC(c3ccccc3)CC2=O)cc1` (stereo not given) yielded a melting point of 164 to 166 °C.

On to `NCC(CC(=O)O)C1CCC1` (stereo not given), for which the melting point is 115 to 117 °C.

`CC(=O)Nc1ccc2c(c1)OCCN2C(C)=O` had a melting point of 150 to 154 °C.

With `CCCCCCCCCCCCCCCCCCNC(=O)SCC(COCc1ccccc1)OC` (stereo not given), the melting point was 40 to 41 °C.

As to `CCOC(=O)/C=C/c1cc(OCc2ccccc2)ccc1Br`, the melting point fell in the range of 72 to 74 °C.

Consider `CCc1cc2c(NCc3ccc4c(c3)OCO4)nc(Cl)nc2s1`, for which the melting point was found to be 148 °C.

Compound `COC(=O)C1=C(C(=O)OC)C2(c3ccc(Cl)cc3)C=CC1O2` (stereo not given) yielded a melting point of 84 °C.

Compound `COC1CC(N)(C(=O)O)C2C(C(=O)O)C12` (stereo not given) yielded a melting point of more than 275 °C.

In turn, `c1cc2c(cc1-c1nnc(SCC3CC3)o1)CCO2` registered a melting point of 57 to 58 °C.

For the compound `NCCCCn1cnc2ccccc21`, the melting point lay within 119 to 123 °C.

Consider `CC(C)(C)Cc1ccc(C#N)c(=O)[nH]1`, for which the melting point was 211 to 212 °C.

Regarding `O=C(O)/C=C/c1cccc(-c2nc(=O)c3ccccc3s2)n1`, the melting point came to 116 °C.

With `COC1(c2cc(F)cc(OCc3ccc(-n4ccnc4C)cc3)c2)CCOCC1`, the melting point stood at 168 °C.

The compound `O=c1c2cccnc2n(-c2cccc([N+](=O)[O-])c2)c(=O)n1CCO` displayed a melting point of 212 to 213 °C.

For the compound `O=C(O)C1Cc2c(n(Cc3ccccc3)c3ccccc23)CN1` (stereo not given), the melting point was 252 to 253 °C.

`CCCN(CCC)C(=O)C(C)Oc1nc(-c2ccccc2)nc2c1CCCC2` (stereo not given) returned a melting point of 73 to 74 °C.

`COc1ccc(C(C)NC2=Nc3ccc(Cl)cc3C(=O)N(C)C2)cc1OC` (stereo not given) displayed a melting point of 175 to 178 °C.

For the compound `CC(C)C[C@H](NC(=O)CCOc1ccccc1)C(=O)N[C@@H](C(C)C)[C@@H](O)c1c(-c2ccccc2)c1=O`, the melting point lay in the range of 92 to 95 °C.

Take `CNC(=O)ON=C1SCOC1COC` (stereo not given): the melting point fell in the range of 105 to 106 °C.

For `Cc1sc2c(c1C)C(c1ccc(Cl)cc1)=N[C@@H](CC(=O)Nc1ccc(O)cc1)c1nnc(C)n1-2`, the melting point lay in the range of 215 to 220 °C.

For `O=C(O)c1cc(CN2C(=O)C3(COc4cc5c(cc43)OCO5)c3ccccc32)oc1C(F)(F)F` (stereo not given), the melting point was in the range of 195 to 197 °C.

`CN(C)CCOc1ccc2sc(C(=O)Nc3ccccc3N)cc2c1` registered a melting point of 191 to 193 °C.

Regarding `CCC(C=O)(CC)SN(C)C(=O)ON=C1SC(C)(C)C(=O)N1C`, the melting point fell in the range of 105 to 106 °C.

`C#Cc1cccc(Nc2ncnc3cc(OCCOC(C)=O)c(OCCOC(C)=O)cc23)c1` had a melting point of 137 to 138 °C.

For the compound `CC(C)(C)OC(=O)NCc1ccc(Nc2ncnc3[nH]cc(C(=O)c4ccccc4)c23)cc1`, the melting point was in the range of 256 to 258 °C.

Turning to `FC(F)c1cc(-c2cccc(C(F)(F)F)c2)nc2ccnn12`, the melting point is 127 °C.

`CCc1ccc(C=CC(=O)NN2CC(=O)NC2=O)cc1Cl` showed a melting point of 231 to 234 °C.

In turn, `C[N+]([O-])(c1cnccc1[N+](=O)[O-])n1cccc1` (stereo not given) returned a melting point of 135 to 140 °C.

On to `CCOC(=O)C1Cc2cc3c(-c4ccccc4F)noc3cc2O1` (stereo not given), for which the melting point is 115 to 116 °C.

In turn, `COC(C)=CC(=O)NC1CCCCC1` gave a melting point of 109 °C.

Take `CCCCCCCCC1C=CC(/C(C)=C/c2ccc(C(=O)O)o2)=C2N=C3CCCCC3=C21` (stereo not given): the melting point lay in the range of 152 to 154 °C.
